Blank lines part the entries; values can stand above or below the molecule they belong to. Calls of active or inactive are those of the source. The rule behind the calls is not given here.
Legend:
[1] = target: T1, von Hippel-Lindau disease tumor suppressor/Bromodomain-containing protein 4 (Homo sapiens) (UniProt O60885+P40337); experiment: PROTAC activity at BRD4/VHL in human J82 cells assessed as induction of BRD4 degradation up to 100 nM incubated for 24 hrs by Western blotting analysis; format: cell-based
T1 sequence (P40337 whole entry, looked up, other chains not shown): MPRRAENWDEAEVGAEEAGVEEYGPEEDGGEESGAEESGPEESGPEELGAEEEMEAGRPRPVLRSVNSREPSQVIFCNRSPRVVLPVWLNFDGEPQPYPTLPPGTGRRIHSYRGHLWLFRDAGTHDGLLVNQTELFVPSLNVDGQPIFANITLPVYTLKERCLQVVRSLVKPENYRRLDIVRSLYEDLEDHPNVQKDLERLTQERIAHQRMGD

[2] = target: T1, von Hippel-Lindau disease tumor suppressor/Bromodomain-containing protein 4 (Homo sapiens); experiment: PROTAC activity at BRD4/VHL in human LNCaP cells expressing PSMA assessed as induction of BRD4 degradation incubated for 24 hrs by Western blotting analysis; format: cell-based; conditions: dose <= 100.0 nM
[3] = target: T1, von Hippel-Lindau disease tumor suppressor/Bromodomain-containing protein 4 (Homo sapiens); experiment: PROTAC activity at BRD4/VHL PSMA knockdown in human LNCaP cells assessed as induction of BRD4 degradation at 3 nM incubated for 12 hrs by Western blotting analysis; format: cell-based
[4] = target: T1, von Hippel-Lindau disease tumor suppressor/Bromodomain-containing protein 4 (Homo sapiens); experiment: PROTAC activity at BRD4/VHL in human LNCaP cells assessed as induction of BRD4 degradation at 10 nM incubated for 8 hrs in presence of MLN4924 by Western blotting analysis; format: cell-based
[5] = Toxicity in male BALB/c mouse assessed as effect on liver weight at 0.47 mmol/L, iv administered every day for 21 days; format: organism-based; conditions: in vivo, 504 h, time 21 day
J82 = experiment: Cytotoxicity against human J82 cells assessed as cell viability incubated for 72 hrs by CCK-8 assay; format: functional, cell-based
[6] = Toxicity in male BALB/c mouse assessed as effect on tumor weight at 0.47 mmol/L, iv administered every day for 21 days; format: organism-based; conditions: in vivo, 504 h, time 21 day
[7] = target: T1, von Hippel-Lindau disease tumor suppressor/Bromodomain-containing protein 4 (Homo sapiens); experiment: PROTAC activity at BRD4/VHL in HEK293 cells assessed as induction of BRD4 degradation up to 100 nM incubated for 24 hrs by Western blotting analysis; format: cell-based
[8] = Toxicity in male BALB/c mouse assessed as effect on heart weight at 0.47 mmol/L, iv administered every day for 21 days; format: organism-based; conditions: in vivo, 504 h, time 21 day
[9] = Toxicity in male BALB/c mouse assessed as body weight loss at 0.47 mmol/L, iv administered every day for 21 days; format: organism-based; conditions: in vivo, 504 h, time 21 day
DU-145 = experiment: Cytotoxicity against human DU-145 cells assessed as cell viability incubated for 72 hrs by CCK-8 assay; format: functional, cell-based
[10] = target: T1, von Hippel-Lindau disease tumor suppressor/Bromodomain-containing protein 4 (Homo sapiens); experiment: PROTAC activity at BRD4/VHL in human DU-145 cells assessed as induction of BRD4 degradation up to 100 nM incubated for 24 hrs by Western blotting analysis; format: cell-based
[11] = Toxicity in male BALB/c mouse assessed as effect on spleen weight at 0.47 mmol/L, iv administered every day for 21 days; format: organism-based; conditions: in vivo, 504 h, time 21 day
[12] = Half life in BALB/c mouse at 0.14 mmol/L, iv; format: ADME; conditions: in vivo
HEK-293T = experiment: Cytotoxicity against HEK293T cells assessed as cell viability incubated for 72 hrs by CCK-8 assay; format: toxicity, cell-based; conditions: human
[13] = target: T1, von Hippel-Lindau disease tumor suppressor/Bromodomain-containing protein 4 (Homo sapiens); experiment: PROTAC activity at BRD4/VHL in human 22Rv1 cells expressing PSMA assessed as induction of BRD4 degradation incubated for 24 hrs by Western blotting analysis; format: cell-based; conditions: dose <= 100.0 nM
[14] = target: T1, von Hippel-Lindau disease tumor suppressor/Bromodomain-containing protein 4 (Homo sapiens); experiment: PROTAC activity at BRD4/VHL in human VCaP cells expressing PSMA assessed as induction of BRD4 degradation incubated for 24 hrs by Western blotting analysis; format: cell-based; conditions: dose <= 100.0 nM
[15] = target: T1, von Hippel-Lindau disease tumor suppressor/Bromodomain-containing protein 4 (Homo sapiens); experiment: PROTAC activity at BRD4/VHL in human LNCaP cells assessed as induction of BRD4 degradation at 10 nM incubated for 8 hrs in presence of VH032 by Western blotting analysis; format: cell-based
[16] = Drug concentration in male BALB/c mouse plasma at 0.14 mmol/L, iv; format: ADME, cell-free
[17] = Toxicity in male BALB/c mouse assessed as effect on lung weight at 0.47 mmol/L, iv administered every day for 21 days; format: organism-based; conditions: in vivo, 504 h, time 21 day
[18] = Toxicity in male BALB/c mouse assessed as effect on kidney weight at 0.47 mmol/L, iv administered every day for 21 days; format: organism-based; conditions: in vivo, 504 h, time 21 day
LNCaP [19] = experiment: Antitumor activity against human LNCaP cells xenografted in BALB/c mouse assessed as tumor growth inhibition at 0.47 mmol/L, iv administered every day for 21 days; format: functional; conditions: 504 h, time 21 day, read-out: TGI
[20] = target: T1, von Hippel-Lindau disease tumor suppressor/Bromodomain-containing protein 4 (Homo sapiens); experiment: PROTAC activity at BRD4/VHL in human LNCaP cells assessed as induction of BRD4 degradation at 3 nM incubated for 24 hrs in presence of filipin by Western blotting analysis; format: cell-based
[21] = Drug concentration in male BALB/c mouse Tumor at 0.14 mmol/L, iv; format: ADME, tissue-based, Neoplasm; conditions: in vivo
[22] = target: T1, von Hippel-Lindau disease tumor suppressor/Bromodomain-containing protein 4 (Homo sapiens); experiment: PROTAC activity at BRD4/VHL in human LNCaP cells assessed as induction of BRD4 degradation at 10 nM incubated for 8 hrs in presence of MG132 by Western blotting analysis; format: cell-based
LNCaP [23] = experiment: animal or person; conditions: Mus musculus, po, 504 h, read-out: TGI
Description: Antitumor activity against human LNCaP cells xenografted in BALB/c mouse assessed as tumor growth inhibition at 10 mg/kg, po administered every day for 21 days

Activity [1]: inactive
Activity [2]: Dose-dependent-effect
Activity [3]: Active
Activity [4]: Active
Activity [7]: inactive
Activity [10]: inactive
half-life [12]: 4.19 h
Activity [13]: Dose-dependent-effect
Activity [14]: Dose-dependent-effect
Activity [15]: Active
Cp [16]: Active
Activity [20]: Active
Drug uptake [21]: Active
Activity [22]: Active
Structure (SMILES): Cc1ncsc1-c1ccc([C@H](C)NC(=O)[C@@H]2C[C@@H](OC(=O)CCCc3cn(CCCNC(=O)[C@H](Cc4ccc(O)cc4)NC(=O)[C@H](Cc4ccccc4)NC(=O)CCC(=O)NCCCCCC(=O)N(CCCC[C@H](NC(=O)N[C@@H](CCC(=O)O)C(=O)O)C(=O)O)Cc4cccc(Cl)c4)nn3)CN2C(=O)[C@@H](NC(=O)COCCCOCCNC(=O)C[C@@H]2N=C(c3ccc(Cl)cc3)c3c(sc(C)c3C)-n3c(C)nnc32)C(C)(C)C)cc1
Activity [5]: Non-toxic
Activity (J82): inactive
Activity [6]: Non-toxic
Activity [8]: Non-toxic
Activity [9]: Non-toxic
Activity (DU-145): inactive
Activity [11]: Non-toxic
Activity (HEK-293T): Non-toxic
Activity [17]: Non-toxic
Activity [18]: Non-toxic
inhibition in vivo at 470 µM (LNCaP [19]): 88.6%

Structure (SMILES): CNC(=O)c1ccc(N2C(=S)N(c3ccc(C#N)c(C(F)(F)F)c3)C(=O)C2(C)C)cc1F [ENZALUTAMIDE]
inhibition in vivo at 10 mg/kg (LNCaP [23]): 59.5%
